Measured values as given in BigSolDB 2.1.

O=C1CCC(=O)CC1
solubility (mole fraction)
Details | in acetone | in acetonitrile | in cyclohexane | in ethanol | in ethyl acetate | in isopropanol | in methanol | in methyl acetate | in n-butanol | in n-propanol
278.15 K | 0.177 | 0.241 | – | 0.0215 | 0.093 | 0.018 | 0.112 | 0.156 | 0.0113 | 0.0096
283.15 K | 0.21 | 0.273 | 0.000676 | 0.0301 | 0.117 | 0.0274 | 0.141 | 0.188 | 0.0181 | 0.0162
288.15 K | 0.248 | 0.311 | 0.000868 | 0.0479 | 0.146 | 0.0414 | 0.174 | 0.227 | 0.0293 | 0.0253
293.15 K | 0.29 | 0.35 | 0.00111 | 0.0777 | 0.179 | 0.0681 | 0.221 | 0.27 | 0.0436 | 0.0409
298.15 K | 0.338 | 0.391 | 0.00141 | 0.121 | 0.223 | 0.107 | 0.266 | 0.321 | 0.0654 | 0.0638
303.15 K | 0.391 | 0.434 | 0.00182 | 0.183 | 0.271 | 0.165 | 0.324 | 0.377 | 0.0954 | 0.0996
308.15 K | 0.454 | 0.481 | 0.00234 | 0.265 | 0.332 | 0.254 | 0.393 | 0.441 | 0.145 | 0.157
313.15 K | 0.52 | 0.533 | 0.00293 | 0.375 | 0.404 | 0.36 | 0.461 | 0.515 | 0.222 | 0.24
